Reference: patent US10179782B2, “Substituted sulfonamide compounds” (Genentech, Inc., priority 2016, dated 2019)

Biological target: T1, human TRPA1 (Homo sapiens, UniProt O75762)
T1 construct: expressed in transfected cells; host or cells: CHO cells
Assay: TRPA1 FLIPR Tetra calcium influx assay in CHO cells (block of cinnamaldehyde-induced calcium influx)
Format: cell-based
Conditions: Table 2; CHO cells expressing TRPA1; agonist cinnamaldehyde 75 uM; 20 min compound incubation; Hill coefficient fixed to 1.5; read-out: hTRPA1 CHO Ca2+ AUC EVO (IC50)
Outline: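 IC50s were derived from a Hill fit with n fixed at 1.5, using inhibition of FLIPR Tetra calcium signals in dye-loaded TRPA1-CHO cells. Cells sat with compound 20 min at room temperature in HBSS with 20 mM HEPES (pH 7.4) and 0.02% BSA, then were challenged with cinnamaldehyde near EC80: 75 µM human, 45 µM rat.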

T1 sequence (O75762 whole entry): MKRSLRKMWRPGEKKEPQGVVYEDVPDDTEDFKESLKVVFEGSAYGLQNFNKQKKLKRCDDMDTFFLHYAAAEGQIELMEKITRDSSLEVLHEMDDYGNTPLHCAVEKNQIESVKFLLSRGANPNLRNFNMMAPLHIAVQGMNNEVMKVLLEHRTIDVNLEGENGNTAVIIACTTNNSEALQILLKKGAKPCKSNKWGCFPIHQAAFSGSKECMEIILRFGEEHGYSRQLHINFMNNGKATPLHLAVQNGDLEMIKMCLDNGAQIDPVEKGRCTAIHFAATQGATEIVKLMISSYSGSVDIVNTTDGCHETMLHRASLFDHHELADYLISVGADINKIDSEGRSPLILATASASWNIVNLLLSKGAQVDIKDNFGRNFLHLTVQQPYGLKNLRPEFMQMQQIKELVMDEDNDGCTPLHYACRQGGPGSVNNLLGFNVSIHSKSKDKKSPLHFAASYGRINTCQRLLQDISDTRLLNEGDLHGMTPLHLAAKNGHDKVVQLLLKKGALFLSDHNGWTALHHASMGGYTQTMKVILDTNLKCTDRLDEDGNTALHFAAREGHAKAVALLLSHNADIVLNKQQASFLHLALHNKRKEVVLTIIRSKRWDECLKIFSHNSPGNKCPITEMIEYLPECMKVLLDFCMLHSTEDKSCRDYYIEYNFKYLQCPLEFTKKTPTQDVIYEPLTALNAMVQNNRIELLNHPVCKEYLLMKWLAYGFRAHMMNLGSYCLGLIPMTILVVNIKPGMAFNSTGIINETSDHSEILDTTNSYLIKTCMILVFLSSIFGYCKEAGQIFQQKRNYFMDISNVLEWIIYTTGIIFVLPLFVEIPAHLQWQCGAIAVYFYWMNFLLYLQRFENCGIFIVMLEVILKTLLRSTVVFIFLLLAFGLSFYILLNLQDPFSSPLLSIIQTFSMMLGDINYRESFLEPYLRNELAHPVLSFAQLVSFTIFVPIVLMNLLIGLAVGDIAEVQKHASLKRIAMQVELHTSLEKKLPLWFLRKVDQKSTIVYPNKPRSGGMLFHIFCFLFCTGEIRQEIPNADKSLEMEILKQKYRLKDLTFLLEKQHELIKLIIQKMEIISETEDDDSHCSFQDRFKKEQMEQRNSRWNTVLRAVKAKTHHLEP

Row | IC50 [nM] | SMILES
1 | 3.56 | C[C@H]1[C@H](F)C[C@@H](C(=O)NCc2cc([C@H]3C[C@H](OC(F)(F)F)C3)ncc2F)N1S(=O)(=O)c1ccc(F)cc1 [Example 140, (2S,4R,5S)-4-fluoro-1-(4-fluorophenyl)sulfonyl-N-[[5-fluoro-2-[3-(trifluoromethoxy)cyclobutyl]-4-pyridyl]methyl]-5-methyl-pyrrolidine-2-carboxamide]
2 | 20.4 | C[C@H]1[C@H](F)C[C@@H](C(=O)NCc2cc(-c3cnc(C4CC4)nc3)ncc2F)N1S(=O)(=O)c1ccc(F)cc1 [Example 141, (2S,4R,5S)-N-[[2-(2-cyclopropylpyrimidin-5-yl)-5-fluoro-4-pyridyl]methyl]-4-fluoro-1-(4-fluorophenyl)sulfonyl-5-methyl-pyrrolidine-2-carboxamide]
3 | 12 | C[C@H]1[C@H](F)C[C@@H](C(=O)NCc2cc(-c3cnc(C(F)(F)F)nc3)c(C#N)c(C3CC3)n2)N1S(=O)(=O)c1ccc(F)cc1 [Example 142, (2S,4R,5S)—N-([5-cyano-6-cyclopropyl-4-[2-(trifluoromethyl)pyrimidin-5-yl]pyridin-2-yl]methyl)-4-fluoro-1-[(4-fluorobenzene)sulfonyl]-5-methylpyrrolidine-2-carboxamide]
4 | 22.4 | C[C@H]1[C@H](F)C[C@@H](C(=O)NCc2cc(OCCC3(C(F)(F)F)CC3)nc(C3CC3)n2)N1S(=O)(=O)c1ccc(F)cc1 [Example 143, (2S,4R,5S)-N-[[2-cyclopropyl-6-[2-[1-(trifluoromethyl)cyclopropyl]ethoxy]pyrimidin-4-yl]methyl]-4-fluoro-1-(4-fluorophenyl)sulfonyl-5-methyl-pyrrolidine-2-carboxamide]
5 | 17 | C[C@H]1[C@H](F)C[C@@H](C(=O)NCc2cc(-c3cnc(C(F)(F)F)c(F)c3)c(F)cn2)N1S(=O)(=O)c1ccc(F)cc1 [Example 144, (2S,4R,5S)-4-fluoro-N-[[5-fluoro-4-[5-fluoro-6-(trifluoromethyl)-3-pyridyl]-2-pyridyl]methyl]-1-(4-fluorophenyl)sulfonyl-5-methyl-pyrrolidine-2-carboxamide]
6 | 8.36 | C[C@H]1[C@H](F)C[C@@H](C(=O)NCc2cc(N3CC[C@H](OC(F)(F)F)C(F)(F)C3)ncc2F)N1S(=O)(=O)c1ccc(F)cc1 [Example 145, (2S,4R,5S)-N-[[2-[(4S)-3,3-difluoro-4-(trifluoromethoxy)-1-piperidyl]-5-fluoro-4-pyridyl]methyl]-4-fluoro-1-(4-fluorophenyl)sulfonyl-5-methyl-pyrrolidine-2-carboxamide]
7 | 35 | C[C@H]1[C@H](F)C[C@@H](C(=O)NCc2cc(-c3cnc(C(F)(F)F)nc3)c(OC(F)F)cn2)N1S(=O)(=O)c1ccc(F)cc1 [Example 146, (2S,4R,5S)-N-[[5-(difluoromethoxy)-4-[2-(trifluoromethyl)pyrimidin-5-yl]-2-pyridyl]methyl]-4-fluoro-1-(4-fluorophenyl)sulfonyl-5-methyl-pyrrolidine-2-carboxamide]
8 | 24.5 | C[C@H]1[C@H](F)C[C@@H](C(=O)NCc2cn([C@H]3CC[C@H](C(F)(F)F)CC3)nc2C(F)(F)F)N1S(=O)(=O)c1ccc(F)cc1 [Example 147, (2S,4R,5S)-4-fluoro-1-(4-fluorophenyl)sulfonyl-5-methyl-N-[[3-(trifluoromethyl)-1-[4-(trifluoromethyl)cyclohexyl]pyrazol-4-yl]methyl]pyrrolidine-2-carboxamide]
9 | 7.64 | C[C@H]1[C@H](F)C[C@@H](C(=O)NCc2cn(-c3cnc(C(F)(F)F)s3)nc2Cl)N1S(=O)(=O)c1ccc(F)cc1 [Example 148, (4R,5S)-N-[[3-chloro-1-[2-(trifluoromethyl)thiazol-5-yl]pyrazol-4-yl]methyl]-4-fluoro-1-(4-fluorophenyl)sulfonyl-5-methyl-pyrrolidine-2-carboxamide]
10 | 0.756 | O=C(NCc1cc(-c2cnc(C(F)(F)F)nc2)ncc1C(F)(F)F)[C@@H]1[C@H]2C[C@H]2CN1S(=O)(=O)c1ccc(F)cc1 [Example 149, (1S,2S,5R)-3-(4-fluorophenyl)sulfonyl-N-[[5-(trifluoromethyl)-2-[2-(trifluoromethyl)pyrimidin-5-yl]-4-pyridyl]methyl]-3-azabicyclo[3.1.0]hexane-2-carboxamide]
11 | 5.72 | O=C(NCc1cc(-c2cnc(C(F)(F)F)nc2)ncc1C(F)F)[C@@H]1[C@H]2C[C@H]2CN1S(=O)(=O)c1ccc(F)cc1 [Example 150, (1R,4S,5S)-N-[[5-(difluoromethyl)-2-[2-(trifluoromethyl)pyrimidin-5-yl]-4-pyridyl]methyl]-3-(4-fluorophenyl)sulfonyl-3-azabicyclo[3.1.0]hexane-4-carboxamide]
12 | 1 | O=C(NCc1cc(-c2cnc(C(F)(F)F)nc2)nc(C2CC2)n1)[C@@H]1[C@H]2C[C@H]2CN1S(=O)(=O)c1ccc(F)cc1 [Example 151, (1S,2S,5R)-N-[[2-cyclopropyl-6-[2-(trifluoromethyl)pyrimidin-5-yl]pyrimidin-4-yl]-methyl]-3-(4-fluorophenyl)sulfonyl-3-azabicyclo[3.1.0]hexane-2-carboxamide]
13 | 3.03 | C[C@H]1[C@H](F)C[C@@H](C(=O)NCc2cc(-c3cnc(C(F)(F)F)nc3)cnc2C(F)(F)F)N1S(=O)(=O)c1ccc(F)cc1 [Example 152, (2S,4R,5S)-4-fluoro-1-(4-fluorophenyl)sulfonyl-5-methyl-N-[[2-(trifluoromethyl)-5-[2-(trifluoromethyl)pyrimidin-5-yl]-3-pyridyl]methyl]pyrrolidine-2-carboxamide]
14 | 0.229 | C[C@H]1[C@H](F)C[C@@H](C(=O)NCc2cc(-c3cnc(C(F)(F)F)nc3)ncc2C(F)(F)F)N1S(=O)(=O)c1cc2cc(F)ccc2o1 [Example 153, (2S,4R,5S)-4-fluoro-1-(5-fluorobenzofuran-2-yl)sulfonyl-5-methyl-N-[[5-(trifluoromethyl)-2-[2-(trifluoromethyl)pyrimidin-5-yl]-4-pyridyl]methyl]pyrrolidine-2-carboxamide]
15 | 0.89 | C[C@H]1[C@H](F)C[C@@H](C(=O)NCc2cc(-c3cnc(C(F)(F)F)nc3)ncc2F)N1S(=O)(=O)c1cc2cc(F)ccc2o1 [Example 154, (2S,4R,5S)-4-fluoro-1-(5-fluorobenzofuran-2-yl)sulfonyl-N-[[5-fluoro-2-[2-(trifluoromethyl)pyrimidin-5-yl]-4-pyridyl]methyl]-5-methyl-pyrrolidine-2-carboxamide]
16 | 4.24 | C[C@@]1(F)C[C@@H](C(=O)NCc2cc(-c3cnc(C(F)(F)F)nc3)ncc2C(F)(F)F)N(S(=O)(=O)c2ccc(F)cc2)C1 [Example 155, (2S,4R)-4-fluoro-1-(4-fluorophenyl)sulfonyl-4-methyl-N-[[5-(trifluoromethyl)-2-[2-(trifluoromethyl)pyrimidin-5-yl]-4-pyridyl]methyl]pyrrolidine-2-carboxamide]
17 | 1.93 | C[C@@]1(F)C[C@@H](C(=O)NCc2cc(-c3cnc(C(F)(F)F)nc3)ncc2C(F)(F)F)N(S(=O)(=O)c2cc3cc(F)ccc3o2)C1 [Example 156, (2S,4R)-4-fluoro-1-(5-fluorobenzofuran-2-yl)sulfonyl-4-methyl-N-[[5-(trifluoromethyl)-2-[2-(trifluoromethyl)pyrimidin-5-yl]-4-pyridyl]methyl]pyrrolidine-2-carboxamide]
